Test results taken from US6589984B1, “Benzofurylpyrone derivatives” (Teijin Limited, priority 1998, dated 2003).

Assays:
[1] = Drug effect evaluation test: serum TG, total cholesterol and HDL in rats after 7 days of oral dosing; format: in vivo; conditions: SD male rats, 4 hours after final administration
Procedure: 6-(benzofuran-2-yl)-3,5-dimethyl-4-hydroxy-2H-pyran-2-one (Example 2) was suspended in a 0.5% carboxymethyl cellulose Na aqueous solution (vehicle) to prepare 20 mg/ml and 60 mg/ml administration solutions, and these were orally administered to 6-week-old SD male rats at a dose of 5 ml/kg once a day, for 7 consecutive days. CE-2 by Nihon Crea Co. was used for the rat feed, and the rats were allowed free access to food and water. The rats were separated into a vehicle-administered group of 6 rats and a drug-administered group of 6 rats for a test. At 4 hours after the final drug administration, the rats were killed under ether anesthesia, blood was drawn from the abdominal aorta, and the serum levels of TG, total cholesterol (TC) and HDL-were measured.
Triglyceride EII-HA Test Wako (product of Wako Junyaku Kogyo) was used for the TG measurement, HA Test Wako/Cholesterol E-HA Test Wako (product of Wako Junyaku Kogyo) was used for the total cholesterol (TC) measurement, and HDL-cholesterol Test Wako (product of Wako Junyaku Kogyo) was used for the HDL measurement.

[2] = test system: Human hepatic cancer cells HepG2; assay: TG production inhibiting activity (14C-acetic acid incorporation into TG) in HepG2 cells; format: cell-based; conditions: for IC50: group criterion
Method in brief: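 HepG2 cells cultured 6 days in eRDF with 10% bovine serum, then in serum-free eRDF given compound (diluted from 20 mM DMSO stock) plus 14C-acetic acid for one day at 37 °C, 5% CO2. Lipids extracted with hexane/isopropanol 2:1 and separated by TLC; the TG spot was cut out and counted by liquid scintillation.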

[3] = 100 mg/kg orally once a day for 7 days
[4] = 300 mg/kg orally once a day for 7 days
[5] = Homo sapiens, HepG2, alternatives: IC50 less than 10 μM, or at least 30% inhibition at 1 μM, or at least 50% inhibition at 10 μM
[6] = Homo sapiens, HepG2, alternatives: IC50 at least 10 μM and less than 100 μM, or at least 5% and less than 30% inhibition at 1 μM, or at least 30% and less than 50% inhibition at 10 μM

SMILES	IC50 [2, 5] [µM]	IC50 [2, 6] [µM]	also measured
Cc1c(-c2cc3ccccc3o2)oc(=O)c(C)c1O [Example 2, 6-(benzofuran-2-yl)-3,5-dimethyl-4-hydroxy-2H-pyran-2-one]	< 10	–	Serum HDL-C (mg/dl) (mean ± SE) [1, 3]: 35.0 ± 3.1 mg/dL; Serum TG (mg/dl) (mean ± SE) [1, 3]: 94.8 ± 6.5 mg/dL; Serum HDL-C (mg/dl) (mean ± SE) [1, 4]: 42.2 ± 3.8 mg/dL; Serum TG (mg/dl) (mean ± SE) [1, 4]: 74.8 ± 10.7 mg/dL; triglyceride biosynthesis inhibiting activity ([2]; HepG2, conclusion in words from Table 1): exhibits triglyceride biosynthesis inhibiting activity; inhibition at 1 µM ([2]; Homo sapiens, 24 h, sample concentration 1 μM, HepG2, one day culture with 14C-acetic acid): 22%; inhibition at 10 µM ([2]; Homo sapiens, 24 h, sample concentration 10 μM, HepG2, one day culture with 14C-acetic acid): 70%; inhibition at 100 µM ([2]; Homo sapiens, 24 h, sample concentration 100 μM, HepG2, one day culture with 14C-acetic acid): 98%
Cc1c(-c2cc3cc(OCc4ccccc4F)ccc3o2)oc(=O)c(C)c1O [Example 78, 3,5-dimethyl-6-(5-(2-fluorobenzyloxy)benzofuran-2-yl)-4-hydroxy-2H-pyran-2-one]	< 10	–	–
Cc1c(-c2cc3ccccc3o2)oc(=O)c(C)c1OC(=O)c1ccco1 [Example 62, 6-(benzofuran-2-yl)-3,5-dimethyl-4-(2-furoyloxy)-2H-pyran-2-one]	< 10	–	–
Cc1c(-c2cc3ccccc3o2)oc(=O)c(C)c1OC(=O)c1ccncc1 [Example 50, 6-(benzofuran-2-yl)-3,5-dimethyl-4-isonicotinoyloxy-2H-pyran-2-one]	< 10	–	–
Cc1c(O)c(-c2ccccc2)c(-c2cc3ccccc3o2)oc1=O [Example 35, 6-(benzofuran-2-yl)-4-hydroxy-3-methyl-5-phenyl-2H-pyran-2-one]	–	10 to 100	–
Cc1c(-c2cc3cc(OCc4ccccc4)ccc3o2)oc(=O)c(C)c1OC(=O)c1ccncc1 [Example 56, 6-(5-benzyloxybenzofuran-2-yl)-3,5-dimethyl-4-isonicotinoyloxy-2H-pyran-2-one]	< 10	–	–
Cc1c(-c2cc3cc(C(=O)Nc4ccc(S(N)(=O)=O)cc4)ccc3o2)oc(=O)c(C)c1O [Example 305, 3,5-dimethyl-4-hydroxy-6-(5-(4-(sulfamoyl)phenylcarbamoyl)benzofuran-2-yl)-2H-pyran-2-one]	< 10	–	–
Cc1c(-c2cc3cc(OCCCc4ccccc4)ccc3o2)oc(=O)c(C)c1O [Example 203, 3,5-dimethyl-4-hydroxy-6-(5-(3-phenylpropoxy)benzofuran-2-yl)-2H-pyran-2-one]	–	10 to 100	–
Cc1c(-c2cc3cc(OCc4cc(Cl)ccc4Cl)ccc3o2)oc(=O)c(C)c1O [Example 155, 6-(5-(2,5-dichlorobenzyloxy)benzofuran-2-yl)-3,5-dimethyl-4-hydroxy-2H-pyran-2-one]	–	10 to 100	–
COC(=O)c1ccc2oc(-c3oc(=O)c(C)c(OC(C)=O)c3C)cc2c1 [Example 259, 4-acetyloxy-3,5-dimethyl-6-(5-(methoxycarbonyl)benzofuran-2-yl)-2H-pyran-2-one]	< 10	–	–
Cc1c(-c2cc3cc(OCc4ccc(C(F)(F)F)cc4)ccc3o2)oc(=O)c(C)c1O [Example 124, 3,5-dimethyl-4-hydroxy-6-(5-(4-(trifluoromethyl)benzyloxy)benzofuran-2-yl)-2H-pyran-2-one]	–	10 to 100	–
Cc1c(-c2cc3cc(N(C)C(=O)C(C)C)ccc3o2)oc(=O)c(C)c1O [Example 254, 3,5-dimethyl-4-hydroxy-6-(5-(N-isobutyryl-N-methylamino)benzofuran-2-yl)-2H-pyran-2-one]	–	10 to 100	–
Cc1c(-c2cc3cc(N(C)C(=O)c4ccccc4)ccc3o2)oc(=O)c(C)c1O [Example 250, 6-(5-(N-benzoyl-N-methylamino)benzofuran-2-yl)-3,5-dimethyl-4-hydroxy-2H-pyran-2-one]	< 10	–	–
Cc1c(-c2cc3cc(OCc4ccc(Cl)cc4)ccc3o2)oc(=O)c(C)c1O [Example 79, 6-(5-(4-chlorobenzyloxy)benzofuran-2-yl)-3,5-dimethyl-4-hydroxy-2H-pyran-2-one]	–	10 to 100	–
Cc1c(-c2cc3ccccc3o2)oc(=O)c(C)c1OC(=O)Cc1ccccc1 [Example 31, 6-(benzofuran-2-yl)-3,5-dimethyl-4-phenylacetyloxy-2H-pyran-2-one]	< 10	–	–
Cc1c(-c2cc3cc(OCc4cccs4)ccc3o2)oc(=O)c(C)c1O [Example 138, 3,5-dimethyl-4-hydroxy-6-(5-((2-thienyl)methoxy)benzofuran-2-yl)-2H-pyran-2-one]	< 10	–	–
Cc1c(-c2cc3cc(OCC4(C)COC4)ccc3o2)oc(=O)c(C)c1O [Example 187, 3,5-dimethyl-4-hydroxy-6-(5-(3-methyloxetan-3-ylmethoxy)benzofuran-2-yl)-2H-pyran-2-one]	–	10 to 100	–
Cc1c(-c2cc3ccccc3o2)oc(=O)c(C)c1OC(=O)c1ccc(O)nc1 [Example 74, 6-(benzofuran-2-yl)-3,5-dimethyl-4-(6-hydroxynicotinoyloxy)-2H-pyran-2-one]	–	10 to 100	–
